Reference: patent US8283324B2, “Immunomodulatory and anti-tumour peptides” (Centro de Ingenieria Genetica y Biotecnologia, priority 2006, dated 2012)

Experiments:
[1] = system: L929 murine fibroblast cells; experiment: growth of cells, crystal violet, L929; type: cell-based; settings: 9 μM to 300 μM, 72 h; FIG. 9
Protocol: (§1) For this assay, TC-1, H-125 (non-small human ling cancer cells) and L929) murine fibroblast) cells were seeded in 96-well culture plates (Costar) at a 2×10^4 cells/ml in Dulbecco's modified Eagle's medium (DMEM)(Gibco) supplemented with Calf Fetal Serum (Gibco). After 24 h, the peptides were added to the culture in a range of 9 μM to 300 μM. […] Plates were extensively washed with tap water and plates were read at 562 nm. A pro-apoptotic peptide with a marked anti-proliferative effect in vitro was employed as positive control (Perea, S., et al (2004) Antitumor Effect of a Novel Proapoptotic Peptide that Impairs the Phosphorylation by the Protein Kinase 2 Cancer Research 64: 7127-7129).

[2] = competition ELISA for heparin-binding capacity; settings: peptides at 2 μM with 250 units of heparin; FIG. 2
Protocol: This assay consists on a competition ELISA system, similar to the previously described one. The biotinylated LALF32-51 peptide was adsorbed to polystyrene plates (Costar, USA) in 1×PBS and incubated overnight at 4° C. Analogous peptides L-2, L-8, L-12 and L-20 were mixed at 2 μM with 250 units of heparin (Sodic Heparin, 5,000 U/ml, Liorad) in 1×PBS plus 0.1% of bovine serum albumin (BSA). Afterwards, mixes were added to an ELISA plate containing 0.02 μM of the biotinylated LALF32-51 peptide adsorbed to the solid surface. After a 1 h-incubation at room temperature, plates were washed five times with washing solution and the biotinylated LALF32-51 peptide fixed to the solid surface was detected by incubating for 45 min at 37° C. with streptavidin-peroxidase conjugate at a 1:2,000. Afterwards, plates were washed five times with washing solution and the substrate solution was added. After an additional incubation for 15 min, the reactions were stopped with 2 M sulphuric acid solution. The lack of heparin binding to the analogous peptides correlates with the […] optical density, because they are unable to displace the heparin bound to the biotinylated LALF32-51 peptide adsorb to the solid surface. The unlabeled LALF32-51 peptide at a 100× molar excess was used as control of the assay.

[3] = system: TC-1 cells; experiment: growth of tumor cells, crystal violet, TC-1; type: cell-based, C57BI/6; settings: 9 μM to 300 μM, 72 h; FIG. 9
Protocol: as §1

[4] = competition ELISA for LPS-binding capacity; design: species or system E. coli; settings: competition with biotinylated LALF32-51 at 0.2 μM; analogous peptides 10 μM to 0.01 μM; FIG. 1A
Protocol: This assay consists on a competition ELISA system (Hardy E., et al (1994) Enhanced ELISA sensitivity using TCA for efficient coating of biologically active LPS or Lipid A to the solid phase. J. Immunol. Meth. Vol. 176:111-116). Polystyrene plates (Costar, USA) were coated with LPS from E. coli 0111:B4 (1 μg/ml) with 0.2% trichloroacetic acid (TCA). Plates were incubated overnight at 37° C. and further washed ten times with 1× phosphate-buffered saline (1×PBS) plus 0.1% tween-20 (washing solution). The binding of analogous peptides to the LPS fixed to the solid surface was evaluated by a competition ELISA with the biotinylated LALF32-51 peptide at 0.2 μM, obtaining a 90% of maximum LPS binding. To estimate the inhibition curves, different concentrations of the analogous peptides were used, from 10 μM to 0.01 μM and the curve of the LALF32-51 peptide as experimental control. The biotinylated LALF32-51 was incubated in the presence of the analogous peptides for 2 h at 37° C. and plates were washed 5 times after that time with washing solution. The biotinylated LALF32-51 bound to LPS was detected by incubating for 45 min at 37° C. with a streptavidin-peroxidase conjugate at a 1:2,000 dilution. Plates were washed 5 times with washing solution and the substrate solution was added (0.05 M citrate-phosphate buffer, pH 5.5, 1 tablet of 3,3′,5,5′-tetramethylbenzidine and 0.025% hydrogen peroxide). After 15 min incubation, the reaction was stopped by adding 2 M sulphuric acid. The absorbance was quantified at 450 nm in a plate reader (Sensident Scan). There is a correlation between optical density values and the LPS-binding capacity of analogous peptides. Analogous peptides with higher LPS-binding capacity show inhibition curves of lower O.D. compared to the inhibition curve of the LALF32-51 peptide.
Analogous peptides with lower LPS-binding capacity present inhibition curves with […], compared to the inhibition curve of the LALF32-51 peptide.
FIG. 1B represents the inhibition percentages of analogous peptides, at a fixed […] concentration, according to their capacity to displace the binding of the biotinylated LALF32-51 (0.2 μM) to LPS adsorbed to the solid surface. % de inhibición={1−(([O.D.]sample−[O.D.]min)/([O.D.]max−[O.D.]min))}×100 [O.D.] sample: Optical density value in the presence of a fixed concentration of analogous peptides; [O.D.] min: ELISA background; [O.D.] max: Optical density value without analogous peptides.

[5] = system: IFN-γ gene; experiment: IFN-γ gene expression in human mononuclear cells (RT-PCR); type: cell-based; settings: 40 μg/ml, 18 h; mRNA normalized against β-actin; FIG. 3A
Protocol: For this assay, human mononuclear cells were isolated by a Ficoll-Hypaque gradient from a leukocyte concentrate or “Buffy Coat” of a donor. Up to 5×10^6 were seeded in 24-well plates in RPMI 1640 medium supplemented with 10% calf fetal serum. Each peptide was further added at 40 μg/ml in a 0.1 ml volume of RPMI medium and cells were cultured for 18 h at 37° C. and 5% of CO2. Total RNA was extracted by using the TriReagent method. Afterwards, the expressions of IFN-α, IFN-γ and IL-12 genes were determined by the reverse transcription reaction and PCR amplification (RT-PCR kit, Perkin Elmer). Results are shown as relative amounts of messenger RNA normalized against expression levels of the β-actin housekeeping gene.

[6] = system: H-125 (non-small human ling cancer cells); experiment: growth of tumor cells, crystal violet, H-125; type: cell-based; settings: 9 μM to 300 μM, 72 h; FIG. 9
Protocol: as §1

[7] = system: MB16-F10 tumor cells; experiment: anti-tumoral effect in a melanoma model; type: in vivo, C57BI/6 female mice; settings: 4 mg per kg
Protocol: Eight-to-ten weeks-old C57BI/6 female mice were used for this assay (n=10 animals per experimental group). For tumor graft, MB16-F10 tumor cells were used, being resuspended in phosphate-buffered saline (PBS). An amount of 15,000 cells were inoculated in a 200 μl volume by subcutaneous route in the right hind limb. After 4 days, the L-2 peptide was administered, with the second injection administered 7 after the first, and the third immunization was administered 14 days after. In this assay was evaluated a dose of 4 mg of peptide per kg of animal weight. Parameters evaluated to measure the anti-tumoral effect of the given peptide during this assay were the time of tumor grafting and the animal survival.

For “HARIKPTFRRLKWKYKGKFW [Peptide L-2, alanine-substituted analogue of LALF 32-51]”, the anti-proliferative effect [1] was “no effect was detected”, the heparin binding [2] was “unable to bind heparin” and the anti-proliferative effect [3] was “dose-dependent anti-proliferative effect”. For the same sequence, the LPS-binding capacity [4] was “lose the capacity to bind LPS”, the “expression of the IFN-γ gene” value [5] was “capable of inducing the expression” and the anti-proliferative effect [6] was “dose-dependent anti-proliferative effect”. For the same sequence, the “time of tumor grafting” value ([7]; three administrations starting after 4 days, Log Rank *p<0.05, FIG. 5A) was “significantly delayed tumor grafting”, the animal survival ([7]; three administrations, Log Rank *p<0.05, FIG. 5B) was “significantly increased the survival of animals” and the “animal survival compared to the LALF32-51 peptide” value ([7]; FIG. 5B) was “more effective than the LALF32-51 peptide”.
